Test results as given in patent US20180042873A1, “NOVEL METHODS” (Aeromics, Inc., priority 2014, published 2018).

Experiments:
[1] = system: cardiac allograft (BalbC donor heart in B6 recipient); assay: Cardiac allograft rejection model (intraabdominal heterotopic vascularized cardiac transplantation between genetically mismatched mice); assay type: in vivo, mouse; conditions: for survival after 20 days: BalbC heart into B6, after 20 days; for survival after 50 days: BalbC heart into B6, after 50 days
Description: The ability of an APQ inhibitor of the present disclosure to protect against transplant rejection is determined in an intraabdominal heterotopic vascularized cardiac transplantation model between genetically mismatched mice. Four conditions are compared: the use of an APQ4 inhibitor alone, the use of a CTLA4 Ig alone, the combination of an APQ4 inhibitor with a CTLA4 Ig, and a control.
The donor mouse (BalbC, fully genetically mismatched with respect to the recipient mouse which is B6, C57BL/6) is given a 10 mg/kg IP bolus of 2-((3,5-bis(trifluoromethyl)phenyl)carbamoyl)-4-chlorophenyl dihydrogen phosphate in TrisBase 30 minutes prior to surgery.
Before removing the heart, the donor is perfused with Ringer's solution containing 10 μM N-[3,5-bis(trifluoromethyl)phenyl]-5-chloro-2-hydroxybenzamide. After removal from the donor, the heart is stored at 0-4° C. for 8 hours in Ringer's solution containing 10 μM N-[3,5-bis(trifluoromethyl)phenyl]-5-chloro-2-hydroxybenzamide (Cold Ischemic Storage).
30 Minutes prior to surgery, the recipient mouse is given a 10 mg/kg IP bolus of 2-((3,5-bis(trifluoromethyl)phenyl)carbamoyl)-4-chlorophenyl dihydrogen phosphate in TrisBase. The heart is then transplanted into the recipient mouse (B6 mouse) using the vascularized heterotopic cardiac transplantation model. After closing, the recipient mouse receives 10 mg/kg IP injection of 2-((3,5-bis(trifluoromethyl)phenyl)carbamoyl)-4-chlorophenyl dihydrogen phosphate in TrisBase every 6 hours for 5 days.
The recipient mouse (B6) is administered a single dose of Belatacept IP at 10 mg/kg on the day of the transplant surgery as well as a single dose of Belatacept IP at 10 mg/kg 24 hours after surgery.
As a negative control, both the donor and recipient mice receive IP administration of TrisBase with neither an APQ4 inhibitor nor a CTLA4 Ig. Results
The recipient mice are monitored until their hearts stops beating.

[2] = system: explanted heart from BALB/c mice; assay: Cardiac explant experiment: apoptosis by Annexin V flow cytometry after 8 h Cold Ischemic Storage; design: species or system mouse; conditions: 10 μM in Ringer's solution, 8 hours cold storage at 0-4° C.
Description: This experiment is a model for determining the extent of apoptosis occurring in an explanted heart from BALB/c mice. Hearts are perfused with Ringer's solution either supplemented with 10 μM of N-[3,5-bis(trifluoromethyl)phenyl]-5-chloro-2-hydroxybenzamide (Compound 1), or without such supplementation. The explanted hearts are then placed in Cold Ischemic Storage (at 0-4° C.) in their respective buffer solutions for 8 hours. The hearts are then photographed and triturated for analysis of apoptosis using Annexin V flow cytometry. Annexin V is used to label phosphatidylserine on the surface of cells, and this is a conventional marker for cells that have undergone apoptosis. […] In contrast, hearts maintained in the APQ4-inhibitor supplemented Ringer's solution show only about 8% apoptotic cells.

Compound | survival after 20 days [1] | survival after 50 days [1] | survival from about 60 days through the end of monitoring at 150 days ([1]; about 60 days to 150 days) | apoptotic cells [2] | survival from about 60 days through the end of monitoring at 120 days ([1]; about 60 days to 120 days)
Belatacept [CTLA4 Ig, reference compound] | approximately 60% | about 40% | about 13% |  | 
O=C(Nc1cc(C(F)(F)F)cc(C(F)(F)F)c1)c1cc(Cl)ccc1O [Compound 1, N-[3,5-bis(trifluoromethyl)phenyl]-5-chloro-2-hydroxybenzamide] |  |  |  | about 8% | 
O=C(Nc1cc(C(F)(F)F)cc(C(F)(F)F)c1)c1cc(Cl)ccc1OP(=O)(O)O [APQ4 inhibitor, 2-((3,5-bis(trifluoromethyl)phenyl)carbamoyl)-4-chlorophenyl dihydrogen phosphate] | about 30% | about 10% |  |  | about 5%
